US10597388B2, “Pyridazinone herbicides” (FMC CORPORATION, priority 2014, dated 2020)

Experiments:
Assay in all cases: Test C greenhouse herbicide test, pre- and postemergence
Format in all cases: in vivo
[1] = test system: barnyardgrass (Echinochloa crus-galli)
Procedure, shortened: (§1)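 Pre- and postemergence greenhouse screen; values are visual control ratings, 0 meaning no effect and 100 complete kill, assigned relative to untreated plants after 13 to 15 d.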

[2] = test system: blackgrass (Alopecurus myosuroides)
Procedure, shortened: as §1

corn (Zea mays) = test system: corn (Zea mays)
Procedure, shortened: as §1

[3] = test system: foxtail, giant (giant foxtail, Setaria faberii)
Procedure, shortened: as §1

[4] = test system: galium (catchweed bedstraw, Galium aparine)
Procedure, shortened: as §1

[5] = test system: johnsongrass (Sorghum halepense)
Procedure, shortened: as §1

[6] = test system: lambsquarters (Chenopodium album)
Procedure, shortened: as §1

[7] = test system: morningglory (Ipomoea coccinea)
Procedure, shortened: as §1

[8] = test system: nutsedge, yellow (yellow nutsedge, Cyperus esculentus)
Procedure, shortened: as §1

[9] = test system: pigweed (Amaranthus retroflexus)
Procedure, shortened: as §1

[10] = test system: ragweed (common ragweed, Ambrosia elatior)
Procedure, shortened: as §1

[11] = test system: ryegrass, Italian (Italian ryegrass, Lolium multiflorum)
Procedure, shortened: as §1

soybean (Glycine max) = test system: soybean (Glycine max)
Procedure, shortened: as §1

[12] = test system: velvetleaf (Abutilon theophrasti)
Procedure, shortened: as §1

[13] = test system: waterhemp (common waterhemp, Amaranthus rudis)
Procedure, shortened: as §1

[14] = test system: wheat (winter wheat, Triticum aestivum)
Procedure, shortened: as §1

[15] = Postemergence, 31 g ai/ha, scale 0 to 100 (0 no effect, 100 complete control)
[16] = Postemergence, 125 g ai/ha, scale 0 to 100, 0 is no effect, 100 is complete control
[17] = Postemergence, 250 g ai/ha, scale 0 to 100, 0 no effect, 100 complete control, 13 to 15 d
[18] = Preemergence, 31 g ai/ha, scale 0 to 100, 0 is no effect, 100 is complete control
[19] = Preemergence, 62 g ai/ha, scale 0 to 100, 0 is no effect, 100 is complete control
[20] = Preemergence, 125 g ai/ha, scale 0 to 100, 0 is no effect, 100 is complete control
[21] = Preemergence, 250 g ai/ha, scale 0 to 100 (0 no effect, 100 complete control)
[22] = postemergence, 62 g ai/ha, scale 0 to 100, 0 no effect, 100 complete control

Cc1ccc2ccccc2c1-c1c(O)c(Cl)nn(C)c1=O [Compound 125]
Plant response rating, Barnyardgrass [1, 15]: 35
Plant response rating, Barnyardgrass [1, 16]: 80
Plant response rating, Barnyardgrass [1, 17]: 70
Plant response rating, Barnyardgrass [1, 18]: 55
Plant response rating, Barnyardgrass [1, 19]: 70
Plant response rating, Barnyardgrass [1, 20]: 90
Barnyardgrass plant response rating [1, 21]: 98
Barnyardgrass plant response rating [1, 22]: 40
Plant response rating, Blackgrass [2, 15]: 20
Plant response rating, Blackgrass [2, 16]: 60
Plant response rating, Blackgrass [2, 17]: 80
Plant response rating, Blackgrass [2, 18]: 50
Plant response rating, Blackgrass [2, 19]: 55
Plant response rating, Blackgrass [2, 20]: 55
Blackgrass plant response rating [2, 21]: 90
Blackgrass plant response rating [2, 22]: 45
Plant response rating, Corn (corn (Zea mays); [15]): 5
Plant response rating, Corn (corn (Zea mays); [16]): 5
Plant response rating, Corn (corn (Zea mays); [17]): 5
Plant response rating, Corn (corn (Zea mays); [18]): 0
Plant response rating, Corn (corn (Zea mays); [19]): 0
Plant response rating, Corn (corn (Zea mays); [20]): 20
Corn plant response rating (corn (Zea mays); [21]): 55
Corn plant response rating (corn (Zea mays); [22]): 0
Plant response rating, Foxtail, Giant [3, 15]: 70
Plant response rating, Foxtail, Giant [3, 16]: 95
Plant response rating, Foxtail, Giant [3, 17]: 98
Plant response rating, Foxtail, Giant [3, 18]: 95
Plant response rating, Foxtail, Giant [3, 19]: 100
Plant response rating, Foxtail, Giant [3, 20]: 98
Foxtail, Giant plant response rating [3, 21]: 100
Plant response rating, Galium [4, 15]: 95
Plant response rating, Galium [4, 16]: 95
Plant response rating, Galium [4, 17]: 95
Plant response rating, Galium [4, 18]: 100
Plant response rating, Galium [4, 19]: 100
Plant response rating, Galium [4, 20]: 100
Galium plant response rating [4, 21]: 100
Plant response rating, Johnsongrass [5, 15]: 5
Plant response rating, Johnsongrass [5, 16]: 20
Plant response rating, Johnsongrass [5, 17]: 20
Plant response rating, Johnsongrass [5, 18]: 40
Plant response rating, Johnsongrass [5, 19]: 55
Plant response rating, Johnsongrass [5, 20]: 60
Johnsongrass plant response rating [5, 21]: 70
Plant response rating, Lambsquarters [6, 15]: 90
Plant response rating, Lambsquarters [6, 16]: 98
Plant response rating, Lambsquarters [6, 17]: 100
Plant response rating, Lambsquarters [6, 18]: 90
Plant response rating, Lambsquarters [6, 19]: 100
Plant response rating, Lambsquarters [6, 20]: 100
Lambsquarters plant response rating [6, 21]: 100
Plant response rating, Morningglory [7, 15]: 95
Plant response rating, Morningglory [7, 16]: 100
Plant response rating, Morningglory [7, 17]: 100
Plant response rating, Morningglory [7, 18]: 90
Plant response rating, Morningglory [7, 19]: 95
Plant response rating, Morningglory [7, 20]: 95
Morningglory plant response rating [7, 21]: 98
Plant response rating, Nutsedge, Yellow [8, 15]: 35
Plant response rating, Nutsedge, Yellow [8, 16]: 85
Plant response rating, Nutsedge, Yellow [8, 17]: 90
Plant response rating, Nutsedge, Yellow [8, 18]: 65
Plant response rating, Nutsedge, Yellow [8, 19]: 95
Plant response rating, Nutsedge, Yellow [8, 20]: 95
Nutsedge, Yellow plant response rating [8, 21]: 90
Plant response rating, Pigweed [9, 15]: 95
Plant response rating, Pigweed [9, 16]: 98
Plant response rating, Pigweed [9, 17]: 98
Plant response rating, Pigweed [9, 18]: 100
Plant response rating, Pigweed [9, 19]: 100
Plant response rating, Pigweed [9, 20]: 100
Pigweed plant response rating [9, 21]: 100
Plant response rating, Ragweed [10, 15]: 95
Plant response rating, Ragweed [10, 16]: 98
Plant response rating, Ragweed [10, 17]: 98
Plant response rating, Ragweed [10, 18]: 95
Plant response rating, Ragweed [10, 19]: 100
Plant response rating, Ragweed [10, 20]: 98
Ragweed plant response rating [10, 21]: 100
Plant response rating, Ryegrass, Italian [11, 15]: 85
Plant response rating, Ryegrass, Italian [11, 16]: 95
Plant response rating, Ryegrass, Italian [11, 17]: 95
Plant response rating, Ryegrass, Italian [11, 18]: 85
Plant response rating, Ryegrass, Italian [11, 19]: 95
Plant response rating, Ryegrass, Italian [11, 20]: 95
Ryegrass, Italian plant response rating [11, 21]: 95
Plant response rating, Soybean (soybean (Glycine max); [15]): 0
Plant response rating, Soybean (soybean (Glycine max); [16]): 10
Plant response rating, Soybean (soybean (Glycine max); [17]): 10
Plant response rating, Soybean (soybean (Glycine max); [18]): 0
Plant response rating, Soybean (soybean (Glycine max); [19]): 5
Plant response rating, Soybean (soybean (Glycine max); [20]): 30
Soybean plant response rating (soybean (Glycine max); [21]): 35
Plant response rating, Velvetleaf [12, 15]: 85
Plant response rating, Velvetleaf [12, 16]: 95
Plant response rating, Velvetleaf [12, 17]: 98
Plant response rating, Velvetleaf [12, 18]: 95
Plant response rating, Velvetleaf [12, 19]: 100
Plant response rating, Velvetleaf [12, 20]: 100
Velvetleaf plant response rating [12, 21]: 100
Plant response rating, Waterhemp [13, 15]: 85
Plant response rating, Waterhemp [13, 16]: 98
Plant response rating, Waterhemp [13, 17]: 100
Plant response rating, Waterhemp [13, 18]: 98
Plant response rating, Waterhemp [13, 19]: 100
Plant response rating, Waterhemp [13, 20]: 100
Waterhemp plant response rating [13, 21]: 100
Plant response rating, Wheat [14, 15]: 0
Plant response rating, Wheat [14, 16]: 30
Plant response rating, Wheat [14, 17]: 35
Plant response rating, Wheat [14, 18]: 40
Plant response rating, Wheat [14, 19]: 45
Plant response rating, Wheat [14, 20]: 90
Wheat plant response rating [14, 21]: 90
